Experimental data published in the supplement of paper PMC7021759.
± gives the standard deviation of the averaged measurements.

Tested on: SK-N-MM (SKNMM-MYCN, doxycycline-inducible MYCN)
Assay: area under dose-response curve (CellTiter-Glo viability normalised to plate controls) (AUC (arbitrary units)); higher = more loss of viability; extreme values may be limits of the assay
Summary of the method: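 In 96-well plates, SK-N-MM cells with doxycycline-inducible MYCN (1250 cells/100 μL) were given medium with or without doxycycline about 24 h after plating. Compound dilution series of 10 points at 1:3 were added two days later and again on day 4, and CellTiter-Glo luminescence was recorded 3 or 8 days after drugging. The area under the dose-response curve was derived from log2 signals normalised to the positive and negative controls on each plate.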

[1] = MYCN induction (doxycycline): +doxycycline (MYCN induced), time after drugging: 3 days
[2] = MYCN induction (doxycycline): +doxycycline (MYCN induced), time after drugging: 8 days
[3] = MYCN induction (doxycycline): no doxycycline (MYCN not induced), time after drugging: 3 days
[4] = MYCN induction (doxycycline): no doxycycline (MYCN not induced), time after drugging: 8 days

SMILES | area under dose-response curve [1] | area under dose-response curve [2] | area under dose-response curve [3] | area under dose-response curve [4]
CC(C)n1c(/C=C/C(O)CC(O)CC(=O)O)c(-c2ccc(F)cc2)c2ccccc21 (stereo not drawn) [FLUVASTATIN] | 2.15 | 11 | 0 | 4.98
CO[C@H]1C(=O)[C@]2(C)[C@@H](OC)C[C@H]3OC[C@@]3(OC(C)=O)[C@H]2[C@H](OC(=O)c2ccccc2)[C@]2(O)C[C@H](OC(=O)[C@H](O)[C@@H](NC(=O)OC(C)(C)C)c3ccccc3)C(C)=C1C2(C)C [CABAZITAXEL] | 195 | 350 | 140 | 225
CC1(COc2ccc3c(c2)ncn3-c2ccc3cccc(N4CCC(N)CC4)c3n2)COC1 [CRENOLANIB] | 0 | 136 | 0 | 146
CC(=O)O[C@H]1CC[C@@]2(C)C(=CC[C@@H]3[C@@H]2CC[C@]2(C)C(c4cccnc4)=CC[C@@H]32)C1 [ABIRATERONE ACETATE] | 8.14 | 0 | 6.74 | 0.368
CS(=O)(=O)CCNCc1ccc(-c2ccc3ncnc(Nc4ccc(OCc5cccc(F)c5)c(Cl)c4)c3c2)o1 [LAPATINIB] | 0 | 0 | 0 | 0
C[C@H]1[C@@H](O)O[C@@H]2O[C@@]3(C)CC[C@H]4[C@H](C)CC[C@@H]1[C@@]24OO3 [DIHYDROARTEMISININ] | 62.1 | 116 | 37 | 73.1
CO[C@@H]1[C@H](N(C)C(=O)c2ccccc2)C[C@H]2O[C@]1(C)n1c3ccccc3c3c4c(c5c6ccccc6n2c5c31)C(=O)NC4 [MIDOSTAURIN] | 59.7 | 122 | 65.6 | 127
CCOc1cc(C(C)(C)C)ccc1C1=N[C@@](C)(c2ccc(Cl)cc2)[C@@](C)(c2ccc(Cl)cc2)N1C(=O)N1CCN(CCCS(C)(=O)=O)CC1 [RG7112] | 0 | 0 | 0 | 0
C/C=C1\NC(=O)[C@H]2CSSCC/C=C/[C@H](CC(=O)N[C@H](C(C)C)C(=O)N2)OC(=O)[C@H](C(C)C)NC1=O [ROMIDEPSIN] | 231 | 416 | 165 | 398
NC(=O)Nc1cc(-c2cccc(F)c2)sc1C(=O)N[C@H]1CCCNC1 [AZD-7762] | 139 | 244 | 75.8 | 141
C[C@@H]1O[C@@H](O[C@H]2C[C@@H](O)[C@]3(CO)[C@H]4[C@H](O)C[C@]5(C)[C@@H](C6=CC(=O)OC6)CC[C@]5(O)[C@@H]4CC[C@]3(O)C2)[C@H](O)[C@H](O)[C@H]1O [OUABAIN] | 178 | 280 | 173 | 275
CC(C)C[C@H](NC(=O)[C@H](Cc1ccccc1)NC(=O)c1cnccn1)B(O)O [BORTEZOMIB] | 264 | 382 | 245 | 374
CC(=O)Nc1cccc(-n2c(=O)n(C3CC3)c(=O)c3c(Nc4ccc(I)cc4F)n(C)c(=O)c(C)c32)c1 [TRAMETINIB] | 54.2 | 206 | 42.4 | 152
CN[C@@H]1C[C@H]2O[C@@](C)([C@@H]1OC)n1c3ccccc3c3c4c(c5c6ccccc6n2c5c31)C(=O)N[C@H]4O [7-HYDROXYSTAUROSPORINE] | 204 | 290 | 144 | 249
Nc1nccc2c1ncn2[C@@H]1C=C(CO)[C@@H](O)[C@H]1O [3-DEAZANEPLANOCIN] | 15.9 | 119 | 10.3 | 40.9
O=c1cc(-c2cccc3c2Sc2ccccc2S3)oc(N2CCOCC2)c1 |  |  | 16.3 | 
CCN(CC)Cc1ccc2cc(COC(=O)Nc3ccc(C(=O)NO)cc3)ccc2c1 [GIVINOSTAT] | 132 | 283 | 96.7 | 226
CO[C@@]12[C@H](COC(N)=O)C3=C(C(=O)C(C)=C(N)C3=O)N1C[C@@H]1N[C@@H]12 [MITOMYCIN C] | 11.1 | 100 | 4.39 | 78.3
CO[C@H]1C[C@@H]2CC[C@@H](C)[C@@](O)(O2)C(=O)C(=O)N2CCCC[C@H]2C(=O)O[C@H]([C@H](C)C[C@@H]2CC[C@@H](O)[C@H](OC)C2)CC(=O)[C@H](C)/C=C(\C)[C@@H](O)[C@@H](OC)C(=O)[C@H](C)C[C@H](C)/C=C/C=C/C=C/1C [SIROLIMUS] | 18.2 | 7.23 | 41.5 | 24.7

SMILES | area under dose-response curve [1] | area under dose-response curve [2] | area under dose-response curve [3] | area under dose-response curve [4]
COc1cc2/c(=N/c3ccc(Br)cc3F)nc[nH]c2cc1OCC1CCN(C)CC1 [VANDETANIB] | 3.18 | 0 | 2.99 | 125
CC[C@H](Nc1nc(NCc2cnc(C)cc2C)c2ncn(C(C)C)c2n1)[C@@H](C)O [CYC-065] | 66.2 | 165 | 45.7 | 160
COC(=O)[C@]12CCC(C)(C)C[C@H]1[C@H]1C(=O)C=C3[C@@]4(C)C=C(C#N)C(=O)C(C)(C)[C@@H]4CC[C@@]3(C)[C@]1(C)CC2 [BARDOXOLONE METHYL] | 212 | 243 | 216 | 226
COC1=CC(c2cc3ccccc3[nH]2)=N/C1=C\c1[nH]c(C)cc1C [OBATOCLAX] | 195 | 255 | 178 | 229
Oc1ccc(C2=Cc3ccc(O)cc3OC2)cc1 [IDRONOXIL] | 38.3 | 77.4 | 17.5 | 46.3
Cn1c(=O)n(-c2ccc(C(C)(C)C#N)cc2)c2c3cc(-c4cnc5ccccc5c4)ccc3ncc21 [DACTOLISIB] | 73.9 | 132 | 62.3 | 96.3
S=c1[nH]cnc2nc[nH]c12 [MERCAPTOPURINE] | 8.11 | 21.7 | 12.1 | 13.1
CCN(CCCOc1ccc2c(Nc3cc(CC(=O)Nc4cccc(F)c4)[nH]n3)ncnc2c1)CCOP(=O)(O)O [BARASERTIB] | 19.5 | 92.2 |  | 33.5
CC[C@@H]1C(=O)N(C)c2cnc(Nc3ccc(C(=O)N[C@H]4CC[C@H](N5CCN(CC6CC6)CC5)CC4)cc3OC)nc2N1C(C)C [VOLASERTIB] | 87.9 | 138 |  | 75.2
CCc1nc(N)nc(N)c1-c1ccc(Cl)cc1 [PYRIMETHAMINE] | 13.5 | 65.7 | 5.97 | 22.1
Cc1oncc1C(=O)Nc1ccc(C(F)(F)F)cc1 [LEFLUNOMIDE] | 0 | 5.53 | 0 | 16.7
CN(C)c1ccc2nc3ccc(=[N+](C)C)cc-3sc2c1 [METHYLENE BLUE] | 48.8 | 152 | 45.6 | 75.9
O=C(CCCCCCC(=O)Nc1ccccc1)NO [VORINOSTAT] | 78.4 | 191 | 58.2 | 145
COc1cc(NCc2ccc3nc(N)nc(N)c3c2C)cc(OC)c1OC [TRIMETREXATE] | 27.5 | 140 | 18.8 | 47.1
Cn1ncnc1[C@H]1c2n[nH]c(=O)c3cc(F)cc(c23)N[C@@H]1c1ccc(F)cc1 [TALAZOPARIB] | 48.2 ± 12 | 183 ± 40 | 29.3 ± 20 | 78.2 ± 25
CN1CCCN(C(=O)c2cccc(-c3ccc(/C=C4/C(=O)Nc5ccc(Cl)cc54)o3)c2)CC1 [CX-6258] | 165 | 206 | 166 | 202
CN(C)C/C=C/C(=O)Nc1ccc(C(=O)Nc2cccc(Nc3ncc(Cl)c(-c4c[nH]c5ccccc45)n3)c2)cc1 [THZ1] | 102 | 240 | 51.7 | 190
CN(C)CCCNc1c2ccccc2nc2c1[nH]c1ccccc12 [SYUIQ-5] | 219 | 262 | 196 | 225
